Measurements published in patent US12642797B2, “Coated granule, solid dispersion, and preparation containing vortioxetine hydrobromide for oral taste masking” (Seasons Biotechnology (Taizhou) Co., Ltd., priority 2019, dated 2026).
Where a name gives a salt, the structure may show the parent alone.

Assays:
[1] = Solubility in sodium acetate medium pH 6.8 simulating the oral environment (USP method); type: physicochemical; settings: sodium acetate medium pH 6.8, USP method; hemihydrobromide
oral cavity and tongue = experiment: Taste and irritation test by subjects (self-made sample vs reference sample); type: in vivo, human; settings: for Instantaneous irritation: 0-1 minute; for Instantaneous irritation / Delayed irritation: powder equivalent to 20 mg of vortioxetine tasted, hemihydrobromide
Method: In the examples, the taste masking effects of test samples were evaluated by the subject's perception of the bitterness and irritation of the oral cavity and tongue. The Taste and Irritation Classification Tested by the Subjects: [table]

[2] = Subject 1, listed as Reference sample (1a)
[3] = Subject 1, listed as Reference sample (1e)
[4] = Subject 1, listed as Reference sample (2a)
[5] = Subject 1, listed as Reference sample (2c)
[6] = Subject 1, listed as Reference sample (3a)
[7] = Subject 1, listed as Reference sample (3b)
[8] = Subject 1, listed as Reference sample (3c)
[9] = Subject 1, listed as Reference sample (4a)
[10] = Subject 1, listed as Reference sample (1d)
[11] = Subject 1, listed as Reference sample (2d)
[12] = Subject 2, listed as Reference sample (1a)
[13] = Subject 2, listed as Reference sample (1e)
[14] = Subject 2, listed as Reference sample (2a)
[15] = Subject 2, listed as Reference sample (2c)
[16] = Subject 2, listed as Reference sample (3a)
[17] = Subject 2, listed as Reference sample (3b)
[18] = Subject 2, listed as Reference sample (3c)
[19] = Subject 2, listed as Reference sample (4a)
[20] = Subject 2, listed as Reference sample (1d)
[21] = Subject 2, listed as Reference sample (2d)
[22] = Subject 3, listed as Reference sample (1a)
[23] = Subject 3, listed as Reference sample (1e)
[24] = Subject 3, listed as Reference sample (2a)
[25] = Subject 3, listed as Reference sample (2c)
[26] = Subject 3, listed as Reference sample (3a)
[27] = Subject 3, listed as Reference sample (3b)
[28] = Subject 3, listed as Reference sample (3c)
[29] = Subject 3, listed as Reference sample (4a)
[30] = Subject 3, listed as Reference sample (1d)
[31] = Subject 3, listed as Reference sample (2d)

## Cc1ccc(Sc2ccccc2N2CCNCC2)c(C)c1 [vortioxetine hemihydrobromide]
[1]
  solubility: 0.14 mg/mL
Oral cavity and tongue; 5 subjects, treated powder vs untreated 100-mesh salt powder, each equivalent to 20 mg vortioxetine
  Irritation, overall comparison in words: obvious and could hardly be tolerated
Oral cavity and tongue; [2]
  Instantaneous irritation: ++ (+ + Irritating, tolerable)
  Delayed irritation: >30 min
Oral cavity and tongue; [3]
  Instantaneous irritation: ++ (+ + Irritating, tolerable)
  Delayed irritation: 15 to 30 min
Oral cavity and tongue; [4]
  Instantaneous irritation: +++ (+ + + Strong irritation, intolerable)
  Delayed irritation: >30 min
Oral cavity and tongue; [5]
  Instantaneous irritation: +++ (+ + + Strong irritation, intolerable)
  Delayed irritation: >30 min
Oral cavity and tongue; [6]
  Instantaneous irritation: +++ (+ + + Strong irritation, intolerable)
  Delayed irritation: >30 min
Oral cavity and tongue; [7]
  Instantaneous irritation: +++ (+ + + Strong irritation, intolerable)
  Delayed irritation: >30 min
Oral cavity and tongue; [8]
  Instantaneous irritation: +++ (+ + + Strong irritation, intolerable)
  Delayed irritation: >30 min
Oral cavity and tongue; [9]
  Instantaneous irritation: +++ (+ + + Strong irritation, intolerable)
  Delayed irritation: >30 min
Oral cavity and tongue; [10]
  Instantaneous irritation: ++ (+ + Irritating, tolerable)
  Delayed irritation: 15 to 30 min
Oral cavity and tongue; [11]
  Instantaneous irritation: ++ (+ + Irritating, tolerable)
  Delayed irritation: >30 min
Oral cavity and tongue; Subject 1, listed as Reference sample (5)
  Delayed irritation: 15 to 30 min
Oral cavity and tongue; Subject 1, listed as Reference sample (6)
  Delayed irritation: 15 to 30 min
Oral cavity and tongue; Subject 1, listed as Reference sample (7a)
  Delayed irritation: >30 min
Oral cavity and tongue; Subject 1, listed as Reference sample (8a)
  Delayed irritation: 15 to 30 min
Oral cavity and tongue; Subject 1, listed as Reference sample (8b)
  Delayed irritation: 15 to 30 min
Oral cavity and tongue; [12]
  Instantaneous irritation: +++ (+ + + Strong irritation, intolerable)
  Delayed irritation: >30 min
Oral cavity and tongue; [13]
  Instantaneous irritation: +++ (+ + + Strong irritation, intolerable)
  Delayed irritation: >30 min
Oral cavity and tongue; [14]
  Instantaneous irritation: ++ (+ + Irritating, tolerable)
  Delayed irritation: 15 to 30 min
Oral cavity and tongue; [15]
  Instantaneous irritation: ++ (+ + Irritating, tolerable)
  Delayed irritation: 15 to 30 min
Oral cavity and tongue; [16]
  Instantaneous irritation: ++ (+ + Irritating, tolerable)
  Delayed irritation: 15 to 30 min
Oral cavity and tongue; [17]
  Instantaneous irritation: ++ (+ + Irritating, tolerable)
  Delayed irritation: 15 to 30 min
Oral cavity and tongue; [18]
  Instantaneous irritation: ++ (+ + Irritating, tolerable)
  Delayed irritation: 15 to 30 min
Oral cavity and tongue; [19]
  Instantaneous irritation: ++ (+ + Irritating, tolerable)
  Delayed irritation: 15 to 30 min
Oral cavity and tongue; [20]
  Instantaneous irritation: +++ (+ + + Strong irritation, intolerable)
  Delayed irritation: >30 min
Oral cavity and tongue; [21]
  Instantaneous irritation: ++ (+ + Irritating, tolerable)
  Delayed irritation: 15 to 30 min
Oral cavity and tongue; Subject 2, listed as Reference sample (5)
  Delayed irritation: >30 min
Oral cavity and tongue; Subject 2, listed as Reference sample (6)
  Delayed irritation: >30 min
Oral cavity and tongue; Subject 2, listed as Reference sample (7a)
  Delayed irritation: 15 to 30 min
Oral cavity and tongue; Subject 2, listed as Reference sample (8a)
  Delayed irritation: 15 to 30 min
Oral cavity and tongue; Subject 2, listed as Reference sample (8b)
  Delayed irritation: 15 to 30 min
Oral cavity and tongue; [22]
  Instantaneous irritation: +++ (+ + + Strong irritation, intolerable)
  Delayed irritation: >30 min
Oral cavity and tongue; [23]
  Instantaneous irritation: +++ (+ + + Strong irritation, intolerable)
  Delayed irritation: >30 min
Oral cavity and tongue; [24]
  Instantaneous irritation: +++ (+ + + Strong irritation, intolerable)
  Delayed irritation: 1 to 15 min
Oral cavity and tongue; [25]
  Instantaneous irritation: +++ (+ + + Strong irritation, intolerable)
  Delayed irritation: 1 to 15 min
Oral cavity and tongue; [26]
  Instantaneous irritation: ++ (+ + Irritating, tolerable)
  Delayed irritation: >30 min
Oral cavity and tongue; [27]
  Instantaneous irritation: ++ (+ + Irritating, tolerable)
  Delayed irritation: >30 min
Oral cavity and tongue; [28]
  Instantaneous irritation: ++ (+ + Irritating, tolerable)
  Delayed irritation: >30 min
Oral cavity and tongue; [29]
  Instantaneous irritation: +++ (+ + + Strong irritation, intolerable)
  Delayed irritation: >30 min
Oral cavity and tongue; [30]
  Instantaneous irritation: +++ (+ + + Strong irritation, intolerable)
  Delayed irritation: >30 min
Oral cavity and tongue; [31]
  Instantaneous irritation: +++ (+ + + Strong irritation, intolerable)
  Delayed irritation: 1 to 15 min
Oral cavity and tongue; Subject 3, listed as Reference sample (5)
  Delayed irritation: 15 to 30 min
Oral cavity and tongue; Subject 3, listed as Reference sample (6)
  Delayed irritation: 15 to 30 min
Oral cavity and tongue; Subject 3, listed as Reference sample (7a)
  Delayed irritation: 15 to 30 min
Oral cavity and tongue; Subject 3, listed as Reference sample (8a)
  Delayed irritation: >30 min
Oral cavity and tongue; Subject 3, listed as Reference sample (8b)
  Delayed irritation: >30 min
Oral cavity and tongue; Subject 4, listed as Reference sample (1a)
  Instantaneous irritation: ++ (+ + Irritating, tolerable)
